Like-named read-outs stand apart in the source and are kept apart here.
What was measured:
Format in all cases: cell-based, human
HBEC30KT = experiment: Cell viability (ATP, Cell Titer Glo, 4 days), HBEC30KT; conditions: Homo sapiens
Protocol: (§1) FIG. 6A. […] Cell viability is plotted vs. compound concentration. Compound was added to cells plated at 15% confluence in 96-well plates in RPMI-1640 media supplemented with 5% Fetal Bovine Serum and 2 mM L-Glutamine. After 4 days of incubation, ATP levels were measured using Cell Titer Glo (Promega). Data are presented as the average of 2 replicates ±SEM.
(§2) Selectivity may be measured by the half maximal inhibitory concentration (IC50), which, as used herein, is a measure of the effectiveness of a compound in killing cells. This quantitative measure indicates how much of a particular compound is needed to kill a particular cell population by half (e.g., as indicated by the amount of ATP). […] The IC50 can be determined by constructing a dose-response curve. The lower the IC50, the higher the potency, and the greater the difference between IC50 values for different cell lines (e.g., sensitive lines vs. insensitive lines, and sensitive lines vs. normal lines) the greater the selectivity. […]

H1819 = experiment: Cell viability dose-response, H1819; conditions: Homo sapiens; for AC50: NCI-H1819, Table 8, 12-point dose-response starting at 50 micromolar
Method in brief: (§3)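 Cells plated at 15% confluence in RPMI-1640 with 5% FBS and 2 mM L-glutamine, treated with compound in a 12-point, 3-fold dilution series from 50 micromolar, in duplicate. ATP measured by Cell Titer Glo after 4 days; IC50 taken from the dose-response curve.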

H2122 = experiment: Cell viability dose-response, H2122; conditions: Homo sapiens; for AC50: NCI-H2122, Table 8, 12-point dose-response starting at 50 micromolar
Method in brief: as §3

H2073 = experiment: Cell viability dose-response, H2073; conditions: for IC50: read-out: IC50 (uM) vs indicated non-small cell lung cancer cell line H2073; for AC50: NCI-H2073, Table 8, 12-point dose-response starting at 50 micromolar
Protocol: as §1, §2
With this information, we synthesized and tested a series of small molecules derived in conception from the oxalamide and chromone scaffold including N-acyl ureas, as shown in Tables 6-8. Each compound was tested in a 12-point dose-response study starting at 50 micromolar and decreasing in 3-fold increments to sub-nanomolar concentrations, in duplicate. Additionally, one or more additional cell line was tested in the same way.

H2009 = experiment: Cell viability dose-response, H2009; conditions: Homo sapiens, NCI-H2009; Tables 3 and 4; read-out: IC50 (uM) vs indicated non-small cell lung cancer cell line H2009
Method in brief: (§4)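 Cells were plated at 15% confluence in RPMI-1640 with 5% FBS and 2 mM L-glutamine, then exposed to compound for 4 days. Viability was read as cellular ATP by CellTiter-Glo luminescence. Values are means of 2 replicates ±SEM, and IC50 comes from the dose-response curve.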

HCC44 = experiment: Cell viability dose-response, HCC44; conditions: Homo sapiens, HCC44, Table 8; 12-point dose-response starting at 50 micromolar
Method in brief: as §4

[1] = 12-point dose-response starting at 50 micromolar, 3-fold increments, in duplicate, read-out: toxicity data, HBEC30KT
[2] = NCI-H1819, 12-point dose-response starting at 50 micromolar, 3-fold increments, in duplicate, read-out: toxicity data, H1819
[3] = NCI-H2122, 12-point dose-response starting at 50 micromolar, 3-fold increments, in duplicate, read-out: toxicity data, H2122
[4] = Tables 3 and 4, read-out: HBEC30KT IC50
[5] = NCI-H2122, Tables 3 and 4, read-out: IC50 (uM) vs indicated non-small cell lung cancer cell line H2122
[6] = NCI-H1819, Tables 3 and 4, read-out: IC50 (uM) vs indicated non-small cell lung cancer cell line H1819
[7] = Homo sapiens, NCI-H2073, Tables 3 and 4

COc1ccc(CCNC(=O)C(=O)Nc2cccc(C#N)c2)cc1 [SW207021-1]
IC50 (HBEC30KT; [1]): 49.5 µM
IC50 (H1819; [2]): ≥ 49.5 µM
IC50 (H2122; [3]): 0.407 µM

COc1ccc(CCNC(=O)C(=O)Nc2ccc(C)c(Cl)c2)cc1 [SW207020-1]
IC50 (HBEC30KT; [1]): 49.5 µM
IC50 (H1819; [2]): ≥ 49.5 µM
IC50 (H2122; [3]): 0.602 µM

Cc1cccc(CCNC(=O)C(=O)Nc2ccc(Cl)cc2)c1 [SW207006-1]
IC50 (HBEC30KT; [1]): 49.5 µM
IC50 (H1819; [2]): ≥ 49.5 µM
IC50 (H2122; [3]): ≥ 49.5 µM

COc1ccc(CCNC(=O)C(=O)Nc2ccc(Cl)cc2)cc1OC [SW207007-1]
IC50 (HBEC30KT; [1]): 49.5 µM
IC50 (H1819; [2]): ≥ 49.5 µM
IC50 (H2122; [3]): ≥ 49.5 µM

COc1ccc(CCNC(=O)C(=O)Nc2ccc(C(F)(F)F)c(Br)c2)cc1 [SW207015-1]
IC50 (HBEC30KT; [1]): 44.1 µM
IC50 (H1819; [2]): ≥ 49.5 µM
IC50 (H2122; [3]): 0.456 µM

O=C(Nc1ccc([N+](=O)[O-])cc1F)c1sc2ccccc2c1Cl [SW202552]
IC50 (HBEC30KT; [4]): 4950 µM
IC50 (H2122; [5]): 122 µM

COc1ccc(CCNC(=O)C(=O)NCc2ccc(OC)cc2)cc1 [SW207018-1]
IC50 (HBEC30KT; [1]): 49.5 µM
IC50 (H1819; [2]): ≥ 49.5 µM
IC50 (H2122; [3]): ≥ 49.5 µM

COC(=O)c1ccc2nc(NC(=O)c3ccc(C(=O)c4ccccc4)cc3)sc2c1 [SW211561-1]
IC50 (H1819; [6]): 16.5 µM
IC50 (H2073; [7]): 29.1 µM
IC50 (H2122; [5]): 7.75 µM

COc1ccc2nc(NS(=O)(=O)c3ccc(Br)cc3)sc2c1 [SW166942]
IC50 (H1819; [6]): 46.7 µM
IC50 (H2009): 78.6 µM
IC50 (H2073; [7]): 47.6 µM
IC50 (H2122; [5]): 59.6 µM

Nc1ccc2nc(NC(=O)c3ccc(C(=O)O)cc3)sc2c1 [SW209413-1]
IC50 (H1819; [6]): ≥ 49.5 µM
IC50 (H2073; [7]): 49.5 µM
IC50 (H2122; [5]): ≥ 49.5 µM

C=CCc1coc2cc(OCc3cnn(-c4ccccc4)c3)ccc2c1=O [SW209022-1]
AC50 (H1819): 47.1 µM
AC50 (H2073; Homo sapiens): 49.5 µM
AC50 (H2122): 0.323 µM

O=c1c(Cc2cnccn2)coc2cc(OCc3cnn(-c4ccccc4)c3)ccc12 [SW209207-1]
AC50 (H1819): 49.5 µM
AC50 (H2073; Homo sapiens): 49.5 µM
AC50 (H2122): 26.6 µM

O=c1c(Cc2nccs2)coc2cc(OCc3cnn(-c4ccccc4)c3)ccc12 [SW209380-1]
AC50 (H1819): 21.2 µM
AC50 (H2073; Homo sapiens): 17.7 µM
AC50 (H2122): 0.352 µM

O=C1/C(=C/c2ccccc2F)COc2cc(OCc3cnn(-c4ccccc4)c3)ccc21 [SW209196-1]
AC50 (H1819): 41 µM
AC50 (H2073; Homo sapiens): 49.5 µM
AC50 (H2122): 0.827 µM

O=C(Nc1nc2ccccc2s1)c1cccc([N+](=O)[O-])c1 [SW209205-1]
IC50 (H1819; [6]): 0.468 µM
IC50 (H2073; [7]): 49.5 µM
IC50 (H2122; [5]): 0.397 µM

C#CCc1coc2cc(OCc3cnn(-c4ccccc4)c3)ccc2c1=O [SW209021-1]
AC50 (H1819): 49.5 µM
AC50 (H2073; Homo sapiens): 49.5 µM
AC50 (H2122): 0.846 µM

C#CCOc1cccc(-c2coc3cc(OCc4cnn(-c5ccccc5)c4)ccc3c2=O)c1 [SW 209087-1]
AC50 (H1819): 49.5 µM
AC50 (H2073; Homo sapiens): 49.5 µM
AC50 (H2122): 0.106 µM

OC(CCc1ccc(Br)cc1)Cn1ccnc1 (stereo not shown) [SW 209089-1]
AC50 (H1819): 49.5 µM
AC50 (H2073; Homo sapiens): 49.5 µM
AC50 (H2122): ≥ 49.5 µM

O=c1c(Oc2ccccc2F)coc2cc(OCc3cnn(-c4ccccc4)c3)ccc12 [SW043139]
AC50 (H1819): 50 µM
AC50 (H2073; Homo sapiens): 50 µM
AC50 (H2122): 0.166 µM
AC50 (HCC44): 50 µM

O=C1c2ccc(OCc3cnn(-c4ccccc4)c3)cc2OCC1Cc1ccccc1 (stereo not shown) [SW209202-1]
AC50 (H1819): 49.5 µM
AC50 (H2073; Homo sapiens): 49.5 µM
AC50 (H2122): 0.307 µM

COc1ncccc1Cc1coc2cc(OCc3cnn(-c4ccccc4)c3)ccc2c1=O [SW209377-1]
AC50 (H1819): 49.5 µM
AC50 (H2073; Homo sapiens): 0.204 µM
AC50 (H2122): 0.232 µM

COc1ccc2nc(NS(=O)(=O)CC34CCC(CC3=O)C4(C)C)sc2c1 (stereo not shown) [SW202752]
IC50 (H1819; [6]): 166 µM
IC50 (H2009): 4950 µM
IC50 (H2073; [7]): 110 µM

O=C1/C(=C/c2ncc[nH]2)COc2cc(OCc3cnn(-c4ccccc4)c3)ccc21 [SW209384-1]
AC50 (H1819): 15.5 µM
AC50 (H2073; Homo sapiens): 9.68 µM
AC50 (H2122): 14 µM

Nc1cccc(C(=O)Nc2nc3ccccc3s2)c1 [SW209323-1]
IC50 (H1819; [6]): 40.3 µM
IC50 (H2073; [7]): 0.816 µM
IC50 (H2122; [5]): 0.099 µM

O=C1/C(=C/c2ccc(C(F)(F)F)cc2)COc2cc(OCc3cnn(-c4ccccc4)c3)ccc21 [SW209198-1]
AC50 (H1819): 49.5 µM
AC50 (H2073; Homo sapiens): 49.5 µM
AC50 (H2122): 1.44 µM

O=c1c(Cc2ccccn2)coc2cc(OCc3cnn(-c4ccccc4)c3)ccc12 [SW209187-1]
AC50 (H1819): 49.5 µM
AC50 (H2073; Homo sapiens): 49.5 µM
AC50 (H2122): 0.28 µM

COc1ccc2nc(NC(=O)CCc3ccccc3)sc2c1 [SW202751]
IC50 (HBEC30KT; [4]): 376 µM
IC50 (H1819; [6]): 995 µM

O=c1c(Cc2cccnc2)coc2cc(OCc3cnn(-c4ccccc4)c3)ccc12 [SW209203-1]
AC50 (H1819): 49.5 µM
AC50 (H2073; Homo sapiens): 44 µM
AC50 (H2122): 3.17 µM

NCCCCCOc1cccc(CC2=CCc3cc(OCc4cnn(-c5ccccc5)c4)ccc3C2=O)c1 [SW209383-1]
AC50 (H1819): 49.5 µM
AC50 (H2073; Homo sapiens): 49.5 µM
AC50 (H2122): 2.37 µM

COc1ccc2nc(NS(=O)(=O)c3ccc(C(F)(F)F)cc3)sc2c1 [SW202746]
IC50 (H1819; [6]): 36 µM
IC50 (H2009): 42.7 µM
IC50 (H2073; [7]): 38 µM
IC50 (H2122; [5]): 46.1 µM

C#CCOc1ccc(C(=O)c2ccc(C(=O)Nc3nc4ccc(OC)cc4s3)cc2)cc1 [SW209049-1]
IC50 (H1819; [6]): 21 µM
IC50 (H2073; Tables 3 and 4): 81 µM
IC50 (H2122; [5]): 0.131 µM

Cc1ccc(/C=C2\COc3cc(OCc4cnn(-c5ccccc5)c4)ccc3C2=O)cc1 [SW209199-1]
AC50 (H1819): 39.5 µM
AC50 (H2073; Homo sapiens): 36.1 µM
AC50 (H2122): 43.7 µM

O=c1c(Cc2ccncc2)coc2cc(OCc3cnn(-c4ccccc4)c3)ccc12 [SW209193-1]
AC50 (H1819): 49.5 µM
AC50 (H2073; Homo sapiens): 49.5 µM
AC50 (H2122): 0.549 µM

Nc1ccc(C(=O)Nc2nc3ccccc3s2)cc1 [SW209563-1]
IC50 (H1819; [6]): 19.7 µM
IC50 (H2073; [7]): 0.184 µM
IC50 (H2122; [5]): 0.027 µM

COC(=O)c1ccc(C(=O)Nc2nc3ccccc3s2)cc1 [SW209414-1]
IC50 (H1819; [6]): ≥ 49.5 µM
IC50 (H2073; [7]): 49.5 µM
IC50 (H2122; [5]): ≥ 49.5 µM

O=c1c(Cc2cccs2)coc2cc(OCc3cnn(-c4ccccc4)c3)ccc12 [SW209378-1]
AC50 (H1819): 49.5 µM
AC50 (H2073; Homo sapiens): 0.068 µM
AC50 (H2122): 0.081 µM

O=C1/C(=C/c2cccc(C(F)(F)F)c2)COc2cc(OCc3cnn(-c4ccccc4)c3)ccc21 [SW209197-1]
AC50 (H1819): 21.8 µM
AC50 (H2073; Homo sapiens): 26 µM
AC50 (H2122): 0.042 µM

Nc1ccc(C(=O)Nc2nc3ccccc3[nH]2)cc1 [SW211566]
IC50 (H1819; [6]): ≥ 49.5 µM
IC50 (H2073; [7]): 49.5 µM
IC50 (H2122; [5]): ≥ 49.5 µM

— patent US9789096B2, “Methods and compositions for selective and targeted cancer therapy” (Board of Regents of the University of Texas System, priority 2013, dated 2017)
